Assay results taken from patent publication US7531660B2, “1-[[1-[(2-amino-6-methyl-4-pyridinyl)methyl]-4-fluoro-4-piperidinyl]carbonyl]-4-[2-(2-pyridinyl)-3H-imidazo[4,5-B]pyridin-3-YL]piperidine and methods of use thereof” (Schering Corporation, priority 2005, dated 2009).
Several values for one entry are separate records, joined by “and”; a condition that tells them apart may be missing. Equal values may be shown once. Read-outs that look alike come from different tables or passages of the source.

Experiments:
[1] = molecular target: T1, recombinant human histamine H3 receptor (Homo sapiens, UniProt Q9Y5N1); assay: Human H3-receptor binding assay ([3H]N-alpha-methylhistamine, HEK-293 membranes)
T1 construct: expressed in transfected cells
Protocol: Binding assays were performed with membranes from HEK-293 cells stably expressing recombinant human histamine H3 receptor. Each 200 μL assay volume contained 1.0 nM [^3H]N^−α-methylhistamine, test compound, and 3 μg of membrane protein in 50 mM Tris-HCl, pH 7.4. Total binding was determined in the absence of compound and nonspecific binding in the presence of 10^−5 M thioperamide. Material was incubated 30 minutes at 30° C. then filtered on GF/B filters. These were rinsed three times with cold buffer, then dried, impregnated with Meltilex scintillation counting medium, and counted. Ki values were determined from standard curve-fitting procedures. […] Values are averages from two assays with duplicate determinations in each. Errors are expressed as the range of these values from the mean.

Canine H3 Receptors = Canine H3 Receptors (Canis lupus familiaris, UniProt A0A8I3P226); assay: Binding to canine H3 receptors, brain P2 membranes; conditions: Dog brain membranes, N=2, mean ± SEM
Protocol: (§1) Binding assays were performed with membranes from a P2 pellet preparation of brain from each species as described in West et al., Mol Pharmacol 38:610-613 (1990). Frozen brains were thawed at room temperature and then disrupted in ten volumes (w:v) of ice-cold 50 mM Tris-HCl, pH 7.4, with a Polytron. Homogenates were centrifuged at 1000×g and supernatants then centrifuged at 50,000×g. Pellets from the second centrifugation were resuspended in buffer, sedimented again at 50,000×g, and stored frozen at −80° C.
(§2) Each 200 μL assay volume contained 1.0 nM [^3H]N^−α-methylhlstamine, test compound, and 300 μg of membrane protein in 50 mM Tris-HCl, pH 7.4. Total binding was determined in the absence of compound and nonspecific binding in the presence of 10^−5 M thioperamide. Assay mixtures are incubated 30 minutes at 30° C. then filtered on CF/B filters. Filters were rinsed three times with cold buffer, dried, impregnated with Meltilex scintillation counting medium, and counted. IC50 values were determined using standard curve-fitting procedures and Ki values were calculated from these using the method set forth in Cheng et al., Biochem Pharmacol 22:3099-3108 (1973). Each competition binding assay comprised ten concentrations of compound, each concentration assayed in duplicate. Binding data obtained for the Compound of Formula I to canine and feline H3 receptors are set forth below in Table 1. […]

Feline H3 Receptors = Feline H3 Receptors (Felis catus, UniProt A0ABI7WGM6); assay: Binding to feline H3 receptors, brain P2 membranes; conditions: Cat brain membranes, N=3, mean ± SEM
Protocol: as §1, §2

[2] = Canine pharmacokinetics after oral and i.v. administration; format: in vivo, beagle dogs; conditions: fasted dogs; for MRT: read-out: Mean Residence Time (MRT)
Protocol: The Compound of Formula I was administered at a dose of 3 mg/kg to fasted beagle dogs orally (PO) at […] (0.4% MC formulation) and i.v. at […] (captisol, pH 5.1 fornulation). Blood samples were taken at multiple time intervals for 48 hours post dosing. The blood samples were converted to plasma and stored at −20° C. until being assayed for the Compound of Formula I using an HPLC-API-MS/MS procedure. The pharmacokinctic parameters that were calculated from thiis study are sumarized in Table 2 below.

[3] = system: mice made obese with a high fat diet; assay: Diet-induced obesity in mice (weight gain); format: in vivo; conditions: DIO mice, oral once a day, 0.3 mg/kg in 20% aqueous HPBCD
Protocol: Diet-induced obesity (DIO) was determined according to the following procedure. Young mice were maintained in individual cages at 22° C. on a 12:12 hr light/dark cycle. Mice were made obese with a high fat diet. Mice were orally gavaged daily with vehicle or compound; body weight and food intake were monitored daily.

[4] = system: mice having diet-induced obesity; assay: Liver triglycerides in obese mice; format: in vivo; conditions: DIO mice, 10 mg/kg/day gavage for 12 days
Protocol: The Compound of Formula I was administered daily for 12 days via gavage to mice having diet-induced obesity at a dosage of 10 mg/kg/day (vehicle 0.4% aqueous methylcellulose (MC); see procedure for diet-induced obesity described above).
On day 12, the animals were sacrificed, their livers were collected, and liver pieces were extracted according to the procedure of Folch et al., J. Biol. Chem. 226:497-509 (1957). The collected liver tissue was then homogenized in 6 mL of chloroform:methanol (2:1), 4 mL water was added to the homogenized mixture and the resulting solution was vortexed, then centrifuged at 1000×g for 30 minutes. The chloroform layer was removed and dried under nitrogen to provide the extracted lipids, which were redissolved in 1 mL chloroform and aliquots were transferred into HPLC sample vials. […]
Chromatography was performed using an isocratic mobile phase containing 98.8% hexane and 1.2% isopropanol at a flow rate of 2 mL/min through a Zorbax Sil (4.6×25 cm) silica column (Agilent Technologies #880952-701). Lipids in a 5 μL injection were detected by absorbance at 206 nm and quantitated by computer integration (System Gold, Beckman) of elution profiles. Cholesterol, cholesteryl ester, and triglyceride concentrations were determined by comparison to standard curves using Non-polar Lipid Mix-B, Matreya, Inc., Pleasant Gap, Pa. cat. #1130.

[5] = Oral tolerance in dogs with plasma level analysis; format: in vivo, beagle dogs; conditions: for Plasma level at Day 0: prior to the study; for concentration at 24 h / concentration at 7 day: beagle, dog, plasma, po; for concentration at 24 h / concentration at 7 day / Plasma level at Day 1 / Plasma level at Day 7: 5 mg/kg, 5 mg/kg oral daily; for concentration at 24 h / Plasma level at Day 1: 24 hours after first dose; for concentration at 24 h: read-out: Plasma level at Day 1; for concentration at 7 day / Plasma level at Day 7: end of study
Protocol: Male and female beagle dogs (N=6, age≧4 months, each having a body weight of from 10-15 kg) were used in this study. The treated animals (N=4) were orally administered the Compound of formula I once a day for 7 days at a daily dosage of 5 mg/kg (5 times proposed efficacy dose). The control animals (N=2) were orally administered vehicle only. Animals were fasted for 8 hours prior to each administration of the Compound of formula I or vehicle and were fasted for 2 hours after each administration of the Compound of formula I or vehicle. Blood samples were collected before, during, and after the treatment period for pharmacokinetic analysis.
Approximately 4.0±1 mL of blood was drawn from each animal at prior to the study (day 0), at 24 hours after the first dose (day 1), and at the end of the study (day 7), using jugular venipuncture and immediately placed into separated Vacutainer® tubes containing EDTA anticoagulant, and processed for plasma. The plasma was aspirated and divided into two aliquots (≧0.3 ml each) and each aliquot was frozen at −70° C. or less.
Collected blood plasma samples were analyzed for the concentration of the Compound of formula I using the following analytical method: […]
D: Sample Preparation Procedure: • 1) Pipette 40 μL of sample into a 1 mL 96-well plate. • 2) Add 150 μL of internal standard solution to each well. • 3) Gently vortex plate for 1 minute. • 4) Centrifuge samples for 10 minutes (Eppendorf 5810 Centifuge). • 5) Pipette 100 μL of supernatant into a 350 μL 96-well plate. Results

[6] = beagle, dog, plasma, IV 3 mg/kg
[7] = beagle, dog, plasma, oral 3 mg/kg
[8] = beagle, dog, plasma, oral 3 mg/kg, 0.4% MC
[9] = both sexes, Mean of 4 treated dogs
[10] = dogs, daily oral 5 mg/kg for 7 days
[11] = male, male dog, individual animal

T1 sequence (Q9Y5N1 whole entry): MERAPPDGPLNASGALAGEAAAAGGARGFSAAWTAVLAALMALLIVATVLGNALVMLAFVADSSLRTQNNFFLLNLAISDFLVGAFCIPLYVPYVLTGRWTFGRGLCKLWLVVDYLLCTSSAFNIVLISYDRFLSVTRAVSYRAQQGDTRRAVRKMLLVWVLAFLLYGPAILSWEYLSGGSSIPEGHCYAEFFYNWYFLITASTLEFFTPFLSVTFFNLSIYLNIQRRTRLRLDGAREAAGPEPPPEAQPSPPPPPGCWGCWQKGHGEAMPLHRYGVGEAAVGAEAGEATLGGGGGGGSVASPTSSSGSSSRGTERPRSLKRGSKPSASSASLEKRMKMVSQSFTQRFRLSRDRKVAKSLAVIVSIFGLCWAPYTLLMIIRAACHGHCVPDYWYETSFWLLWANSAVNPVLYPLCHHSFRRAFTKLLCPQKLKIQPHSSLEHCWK
Canine H3 Receptors, sequence (A0A8I3P226 1-445): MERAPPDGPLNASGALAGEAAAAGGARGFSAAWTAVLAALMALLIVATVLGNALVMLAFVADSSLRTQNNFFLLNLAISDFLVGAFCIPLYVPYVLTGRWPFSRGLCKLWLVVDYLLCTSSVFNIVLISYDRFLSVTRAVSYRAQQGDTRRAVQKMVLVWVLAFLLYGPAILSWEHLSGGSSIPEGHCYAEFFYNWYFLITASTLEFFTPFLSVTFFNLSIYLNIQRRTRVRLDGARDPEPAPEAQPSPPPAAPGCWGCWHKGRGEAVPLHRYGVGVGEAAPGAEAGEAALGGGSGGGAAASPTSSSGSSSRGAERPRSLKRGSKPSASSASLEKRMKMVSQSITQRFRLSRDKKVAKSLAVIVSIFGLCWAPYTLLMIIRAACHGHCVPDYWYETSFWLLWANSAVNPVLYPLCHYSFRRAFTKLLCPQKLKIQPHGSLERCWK
Feline H3 Receptors, sequence (A0ABI7WGM6 entry or part of it): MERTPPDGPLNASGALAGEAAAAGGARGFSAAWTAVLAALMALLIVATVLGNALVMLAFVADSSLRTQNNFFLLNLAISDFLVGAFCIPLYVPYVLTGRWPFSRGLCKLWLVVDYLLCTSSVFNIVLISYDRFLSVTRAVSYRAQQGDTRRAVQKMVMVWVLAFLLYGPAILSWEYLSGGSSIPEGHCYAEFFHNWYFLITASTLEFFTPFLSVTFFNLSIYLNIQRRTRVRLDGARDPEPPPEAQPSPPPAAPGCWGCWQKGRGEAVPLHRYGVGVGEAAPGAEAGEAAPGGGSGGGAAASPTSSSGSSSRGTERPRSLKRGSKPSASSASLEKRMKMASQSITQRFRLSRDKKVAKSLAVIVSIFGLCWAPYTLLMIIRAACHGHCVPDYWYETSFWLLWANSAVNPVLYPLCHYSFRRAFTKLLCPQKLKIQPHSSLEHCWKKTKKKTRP

Compound: Cc1cc(CN2CCC(F)(C(=O)N3CCC(n4c(-c5ccccn5)nc5cccnc54)CC3)CC2)cc(N)n1 [Compound of Formula I, 1-[[1-[(2-amino-6-methyl-4-pyridinyl)methyl]-4-fluoro-4-piperidinyl]carbonyl]-4-[2-(2-pyridinyl)-3H-imidazo[4,5-b]pyridin-3-yl]piperidine]
- Ki [1]: 4.6 nM
- Ki (Canine H3 Receptors): 1.3 ± 0.2 nM
- Ki (Feline H3 Receptors): 4.9 ± 0.6 nM
- clearance [2, 6]: 1.7 mL/min/kg
- half-life [2, 6]: 9.5 h
- AUC(0-inf) ([2]; beagle, dog, plasma, IV 3 mg/kg, captisol pH 5.1): 32800 ng·h/mL
- MRT [2, 6]: 10.9 h
- Vd ([2]; beagle, dog, plasma, IV 3 mg/kg, read-out: Vd (ss)): 1.1 L/kg
- Cmax [2, 7]: 910 ng/mL
- AUC(0-inf) [2, 8]: 18900 ng·h/mL
- bioavailability [2, 8]: 58%
- MRT [2, 7]: 18.6 h
- Mean Absorption Time (MAT) (MRTpo − MRTiv) ([2]; oral 3 mg/kg): 7.8 h
- inhibition of weight gain [3]: statistically significant inhibition of weight gain
- reduction in liver triglyceride content relative to control ([4]; 0.4% MC): 52%
- liver triglyceride content ([4]; compound treated group, average): 861±87 mg/liver
- Plasma level at Day 0 ([5]; Mean of 4 treated dogs): 1.70 ng/mL
- concentration at 24 h [5, 9]: 257 ng/mL
- concentration at 7 day [5, 9]: 422 ng/mL
- accumulation in plasma ([5]; dogs, 7 days daily oral 5 mg/kg): accumulated 7 days after daily oral administration
- adverse events [5, 10]: No adverse events were observed
- tolerability [5, 10]: well tolerated
- Plasma level at Day 1 ([5]; female dog, individual animal): 148 ng/mL and 604 ng/mL
- Plasma level at Day 7 ([5]; female dog, individual animal): 680 ng/mL
- Plasma level at Day 0 ([5]; female dog, individual animal): 0 ng/mL
- concentration at 7 day ([5]; female, female dog, individual animal): 540 ng/mL
- Plasma level at Day 1 ([5]; male dog, individual animal): 157 ng/mL
- Plasma level at Day 7 ([5]; male dog, individual animal): 207 ng/mL
- Plasma level at Day 0 ([5]; male dog, individual animal): 0 ng/mL and 6.8 ng/mL
- concentration at 24 h [5, 11]: 118 ng/mL
- concentration at 7 day [5, 11]: 263 ng/mL
